Measurements taken from publication PMC11245370, “3-Position Biaryl Endochin-like Quinolones with Enhanced Antimalarial Performance” (ACS Infectious Diseases, 2024).
Like-named read-outs stand apart in the source and are kept apart here.

Legend:
[1] = tested on: P. falciparum multidrug-resistant Dd2 strain; assay: microbe, parasite or virus in culture; format: cell-based; conditions: Plasmodium falciparum, DD2, 72 h, read-out: P. falciparum IC50 values, Dd2
[2] = tested on: P. yoelii blood-stage infection; conditions: mice
Method: (§1) On day 5, a drop of blood was taken from the tail, and a blood smear was prepared, fixed with methanol, and stained with Giemsa. The operator then examined the stained smear microscopically to determine percent parasitemia. […] In this model, animals were inoculated exactly as for the 4 day test on day 0; however, drug was administered only on day 1, whereas smears were made on day 5 and again weekly thereafter for animals that remained aparasitemic. Animals that remained aparasitemic on day 30 were scored as cures.
The P. yoelii 4 day test monitors suppression of patent infection in female CF1 mice. The test began with the inoculation (iv) of parasitized erythrocytes (3.5 × 10^4P. yoelli) (from a donor animal) on the first day of the experiment (D0). […] Initially, the 3-biaryl-ELQs were tested at doses of 0.0025, 0.005, 0.01, 0.03, 0.1, 0.3, 1.0, and 10 mg/kg/day, including a vehicle-only (PEG400) control. After completion of drug treatment, a blood sample was collected (by pricking the tail vein) for determination of parasite burden beginning on the day after the final dose (D5). Percent parasitemia was assessed by direct microscopic analysis of Giemsa-stained blood smears. […] Animals with observable parasitemia following the experiment were euthanized; animals cleared of parasites from the bloodstream were observed daily with assessment of parasitemia performed weekly until day 30, at which point the animals were scored as cured of infection. […] Nonlinear regression analysis was used for objective determination of ED50’s and ED90’s from the accumulated data as well as the nonrecrudescence dose (NRD). The 4 day test protocol was reviewed and approved by the local IACUC board at the Portland VA Medical Center. Experiments were performed with four mice per group to ensure statistical accuracy.

[3] = ELQ-300, active metabolite of ELQ-331; comparison value, no reference given; cited from earlier work
[4] = HepG2 cytotoxicity / mitochondrial toxicity (TiterGlo ATP, galactose medium); conditions: human, HepG2 cells
Method: HepG2 was routinely cultured in DMEM containing 10% fetal calf serum and 100 IU/mL penicillin and 100 μg/mL streptomycin (complete medium). For studies to investigate the potential for mitochondrial toxicity by selected 3-biaryl-ELQs, the medium contained galactose rather than glucose to force the cells to produce ATP through oxidative phosphorylation, which in turn makes them sensitive to mitochondrial toxicants.[36] […] After this period, the culture medium was removed, and the cells were shifted to galactose-containing medium with test drugs at concentrations ranging from 0 to 10 μM. Drug dilutions were prepared from DMSO stocks into galactose-containing medium. […] After incubation, the contents of each well were removed, and 25 μL of TiterGlo II reagent mix containing luciferase, detergent, and luciferin was added to each well along with 25 μL of culture medium. […] At this point, the plates were read on a luminometer (SpectraMax iD3 iD5Multi-Mode Microplate Reader), and the data were processed to yield the percent decrease in ATP production relative to no-drug control values. These values reflect the potential damage caused by mitochondrial toxicants due to reduced intracellular ATP levels caused by interference with the human mitochondrial electron transport chain. Assays were set up in triplicate.

[5] = tested on: P. falciparum drug-sensitive D6 strain; assay: SYBR Green I antiplasmodial assay, D6 strain; format: cell-based; conditions: Plasmodium falciparum, D6, 72 h, read-out: P. falciparum IC50 values, D6
[6] = molecular target: human liver cytochrome bc1 complex (Homo sapiens, UniProt P00156); parameters: method as in Nilsen et al., 2013; conditions: ref Nilsen et al., 2013; cited from earlier work
[7] = tested on: P. falciparum atovaquone-resistant clinical isolate Tm90-C2B; assay: SYBR Green I antiplasmodial assay, Tm90-C2B; format: cell-based; conditions: Plasmodium falciparum, TM90, 72 h, read-out: P. falciparum IC50 values, Tm90-C2B
[8] = tested on: P. yoelii blood-stage infection; assay: Single-dose cure of blood-stage murine malaria; format: in vivo, Plasmodium yoelii; conditions: lowest single oral dose curing all four mice, day 30
Method: as §1
The effectiveness of selected 3-biaryl ELQs and prodrugs was assessed vs the blood-stage infection for single-dose cures. Mice were infected iv with 3.5 × 10^4P. yoelii infected RBCs as described for the 4 day test above. Drug administration occurred on the day after inoculation (day 1). Test agents were dissolved in PEG-400 and administered ig once. On the fifth day, blood films were prepared, and % parasitemia was assessed. Animals remaining parasite-free for 30 days after drug administration were considered cured. The initial dosing range was 0.25, 0.5, 1, 3, and 10 mg/kg, including a control. Experiments were performed with four mice per group to ensure statistical accuracy. The reported parameter for these studies is the lowest single dose that provides a cure to all four animals in the group.

[9] = tested on: P. falciparum atovaquone-resistant clinical isolate Tm90-C2B; conditions: earlier work of the authors, no reference given; cited from earlier work
[10] = tested on: P. falciparum multidrug-resistant Dd2 strain; conditions: earlier work of the authors, no reference given; cited from earlier work
[11] = earlier work of the authors, no reference given; cited from earlier work
[12] = tested on: P. falciparum drug-sensitive D6 strain; conditions: earlier work of the authors, no reference given; cited from earlier work
[13] = oral gavage days 1-4, parasitemia day 5, prodrugs dosed on molar equivalency to parent

Row | Compound | IC50 [1] [nM] | blood stage in vivo efficacy, 4 day Peters test results, NRD (nonrecrudescence dose) ([2]; oral gavage days 1-4, followed to day 30) [mg/kg/day] | blood stage in vivo efficacy, 4 day Peters test results, ED50 [2, 13] [mg/kg/day] | blood stage in vivo efficacy, 4 day Peters test results, ED90 [2, 13] [mg/kg/day] | elimination T1/2 [3] [h] | IC50 at 24 h [4] [µM] | IC50 [5] [nM] | EC50 [6] [µM] | IC50 [7] [nM] | blood stage in vivo efficacy, single dose cure [8] [mg/kg/day] | IC50 [9] [nM] | IC50 [10] [nM] | metabolic stability [11] | IC50 [12] [nM]
1 | COc1cc2[nH]c(C)c(-c3ccc(Oc4ccc(OC(F)(F)F)cc4)cc3)c(=O)c2cc1Cl [ELQ-300] | 4.2 | 1.0 | 0.02 | 0.06 | 14.6 | > 10 | 3.3 | > 10 | 2.5 | >25 |  |  |  | 
2 | COc1cc2[nH]c(C)c(-c3ccc(Oc4cccc(OC(F)(F)F)c4)cc3)c(=O)c2cc1Cl [ELQ-307] |  |  |  |  |  |  |  |  |  |  | ≤ 0.03 | ≤ 0.03 | metabolically unstable | ≤ 0.03
